# Laboratory results taken from patent US10301308B2, “Azetidine derivatives for tau imaging” (Eli Lilly and Company, priority 2015, dated 2019).
# Experiments:
# [1] = system: native tau aggregates vs native β-amyloid aggregates in human brain sections; assay: Autoradiography selectivity towards tau versus β amyloid in AD human brain tissue; format: binding; details: for selectivity ratio for Tau:Aβ: 5 Tau+Aβ+ and 2 Tau-Aβ+ brain specimens; for grey matter to white matter (GM/WM) signal ratio: autoradiography, Tau+Aβ+ brain specimens; for binding sites observed in autoradiography: human brain sections Groups A, B, C
# Text: Based on the anti-tau and anti-amyloid immunostaining results of brain sections, three groups of human brain sections are selected for autoradiography experiments to determine the native tau-binding selectivity of 3-(3-[18F]-fluoroazetidin-1-yl)-8-methylbenzo[4,5]imidazo[1,2-a]pyridine. Group A are tau-rich AD brain slices (labeled as Tau+Aβ+), Group B are tau-poor AD brain slices (marked as Tau-Aβ+), and Group C are Tau-Aβ− normal brain slices. […] The human AD brain sections in Group B are #33562, #32656, #33998, #35682, and #33563. The normal human brain sections in group C are #29092 and #32566. Tissue slices from the same donors are used to calculate selectivity for all three compounds for testing according to Assay Example 5. Autoradiography is performed for each of these three groups of brains on adjacent 10 μm sections with the amyloid tracer [18F]W372 to quantify the β-amyloid burden. [18F]W372 is a selective amyloid binding tracer discovered by Siemens and evaluated under IND 105173. Sections are covered with 0.5 ml of 3-(3-[18F]-fluoroazetidin-1-yl)-8-methylbenzo[4,5]imidazo[1,2-a]pyridine (in 2.5:2.5:95 DMSO:EtOH:1×PBS, about 20 μCi/slide) and incubated for 1.5 hrs. Then successive washing cycles (1 min PBS, 2 min 30% EtOH/PBS, 2 min 70% EtOH/PBS, 1 min PBS) are employed to remove any unbound tracer. The sections are air dried, placed on a phosphorimaging plate (Fuji IP plate), and exposed overnight. The IP plate is read using a GE Healthcare Life Sciences Typhoon FLA 7000 Phosphorimager. The signal intensity of the grey matter is measured using Fujifilm Multi Gauge software. After subtracting the background signal (signal in the cortex region of Group C), the signal of individual sections of Group A and B are normalized with corresponding signal from autoradiography of the respective adjacent sections with [18F]W372. The calculations are based on Group B brain sections #32656 and #33998, which have undetectable tau pathology by immunohistochemistry. The normalized signal for 3-(3-[18F]-fluoroazetidin-1-yl)-8-methylbenzo[4,5]imidazo[1,2-a]pyridine in Group B brain sections is the relative signal level of 3-(3-[18F]-fluoroazetidin-1-yl)-8-methylbenzo[4,5]imidazo[1,2-a]pyridine to [F-18]W372 resulting from binding to native β-amyloid aggregates. The binding level of 3-(3-[18F]-fluoroazetidin-1-yl)-8-methylbenzo[4,5]imidazo[1,2-a]pyridine to native tau-aggregates in Group A sections is estimated by subtracting the amount of the total signal attributable to binding to 3-amyloid (calculated by multiplying the total signal from [18F]W372 binding to β-amyloid in the adjacent section by the relative signal of 3-(3-[18F]-fluoroazetidin-1-yl)-8-methylbenzo[4,5]imidazo[1,2-a]pyridine to [18F]W372 determined from the Group B sections). The resulting difference is then divided by the signal attributable to binding to β-amyloid to estimate the selectivity of 3-(3-[18F]-fluoroazetidin-1-yl)-8-methylbenzo[4,5]imidazo[1,2-a]pyridine. […] The selectivity of 3-(3-[18F]-fluoroazetidin-1-yl)-8-methylbenzo[4,5]imidazo[1,2-a]pyridine binding to native tau aggregates vs. binding native β-amyloid aggregates is reflected by the ratio of Group A (Tau+Aβ+) signal to the signal of the brain sections #32656 and #33998.
# [2] = Mouse PET/CT time activity curves; format: in vivo, CD-1 wild type mice; details: mouse PET/CT time activity curves
# Protocol: Dynamic Micro-Positron Emission Tomography (mPET) images are obtained from CD-1 wild type mice using 3-(3-[18F]-fluoroazetidin-1-yl)-8-methylbenzo[4,5]imidazo[1,2-a]pyridine. Micro-Computed Tomography (mCT) of each subject is used as anatomical reference for image analysis. Biodistribution of the tracer in brain, muscle, bone, liver, and kidney is assessed by generating Time Activity Curves (TAC) using the fused mPET/mCT images. An INVEON multimodality scanner (Siemens, Germany) is used for mPET/mCT. All animal work is performed in accordance with the University of Sciences Institutional Animal Care & Use Committee-approved procedures.
# Animals are anesthetized with 3% isoflurane/97% oxygen and are placed on the scanner bed. A short high-resolution CT scan is first performed for anatomical registration, followed by a 120-minute PET scan. During the PET scan a water heating system is placed underneath the bed to help maintain the body temperature. Within 3 minutes after the beginning of the PET acquisition, the [18F]-labeled compound 3-(3-[18F]-fluoroazetidin-1-yl)-8-methylbenzo[4,5]imidazo[1,2-a]pyridine is administered to the animals via tail vein injection (250 uCi in a total volume of 200 uL saline). A PET image is generated for each minute of the acquisition time. Uptake of the tracer is obtained by visually drawing regions of interest based on the fused PET/CT images, and the corresponding activity values are determined using the INVEON Research Workplace software (Siemens, Germany). All values are represented as percent injected dose per gram (% ID/g).
# The mouse PET/CT time activity curves of 3-(4-(2-[18F]-fluoroethyl)piperidin-1-yl)-8-methoxybenzo[4,5]imidazo[1,2-a]pyridine (T821) (See FIG. 9) and of 3-(4-[18F]-fluoropiperidin-1-yl)-8-methoxybenzo[4,5]imidazo[1,2-a]pyridine (T798) (See FIG. 10) are obtained as described in Assay Example 7 (T821 and T798 are recited in US2011/0182812). […] Therefore, when imaging with T821 and/or T798, the undesirable non-tau PET signals from the skull bones could interfere with desired tau signals from the brain cortex. Thus, in addition to the lack of selectivity for T821 and T798, these compounds would further represent poor candidates for human brain tau PET tracers because of the interfering radioactivity signal from bone. […] The advantageous properties of Compound 8 are useful to provide enhanced tau PET imaging in humans. This combination of critical properties was not known and could not have been predicted from existing tau imaging compounds.
# [3] = target: PHF (tau from Alzheimer's disease donors) (Homo sapiens, UniProt P10636); assay: Competition radioligand binding versus [18F]AV-1451 on PHF (Ki determination)
# Sequence of PHF (tau from Alzheimer's disease donors) (P10636 623-695 limits assumed): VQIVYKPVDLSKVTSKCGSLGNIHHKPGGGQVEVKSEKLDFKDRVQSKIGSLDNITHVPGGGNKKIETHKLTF
# Text: Purified, soluble PHF is isolated from AD brain tissue using a protocol modified from the procedure described by Jicha, et al. (G. A. Jicha, A. O'Donnell, C. Weaver (1999) “Hierarchical phosphorylation of recombinant tau by the paired-helical filament-associated protein kinase is dependent on cyclic AMP-dependent protein kinase” J Neurochem. 72(1):214). Briefly, AD cortex is homogenized using a handheld Kinematica Polytron, followed by high pressure batch—gas expansion using a Parr Cell disruption bomb. Crude homogenate is centrifuged at 28 kg to pellet cell debris. Soluble PHF is isolated from the supernatant by affinity chromatography over an Affigel-10 column on which the tau antibody MCI, which recognizes a pathological conformation of tau, has been immobilized (G. A. Jicha, R. Bowser, I. G. Kazam (1997), “Alz-50 and MC-1, a new monoclonal antibody raised to paired helical filaments, recognize conformational epitopes on recombinant tau” J Neurosci Res. 48(2): 12.)
# The IC50 (i.e. the molar concentration of competing ligand which reduces the specific binding of a radioligand by 50%) for the unlabeled compound is determined by competition radioligand binding, in which the binding of [18F]AV-1451 to PHF is competed with unlabeled compound at various concentrations. […]
# tau protein = assay: Clinical PET imaging of tau protein in the brain (SUVr); format: in vivo, human; details: AD subjects vs healthy controls
# Protocol: (§1) Clinical evaluation of 3-(3-[18F]-Fluoroazetidin-1-yl)-8-methylbenzo[4,5]imidazo[1,2-a]pyridine (Compound 8) as a PET radioligand for imaging tau protein deposition in patients with AD or other neurodegenerative disorders is conducted in healthy volunteers. AD patients, or Chronic Traumatic Encephalopathy (CTE) subjects, by completion of one or more PET scans with Compound 8. Dynamic PET imaging is acquired on a Siemens ECAT EXACT HR+ over 150 minutes following Compound 8 or [18F]AV-1451 injection (0-60 and 90-150 minute imaging segments). Compound 8 or [18F]AV-1451 scans are acquired similarly in two imaging sessions. A brain MRI is also obtained. PET and MRI images are aligned and normalized, and ATLAS-based volumes of interest (VOI) are applied to the dynamic PET series. Compound 8 or [18F]AV-1451 are evaluated in terms of kinetic profile as well as target region to cerebellum standardized uptake value ratio (SUVr between 100-120 min) between healthy volunteers and AD or CTE subjects.
# [4] = Clinical PET kinetic profile: brain uptake, washout, metabolism; format: in vivo, human; details: human subjects, dynamic PET
# Protocol: as §1
SMILES,selectivity ratio for Tau:Aβ [1],grey matter to white matter (GM/WM) signal ratio [1],binding sites observed in autoradiography [1],bone uptake of radioactivity [2],"Ki ([3]; tau obtained from donors with Alzheimer's disease, from IC50 by Cheng-Prusoff) [nM]","Kd ([3]; value used in the Cheng-Prusoff equation, read-out: Kd, dissociation constant of the radioligand) [nM]","uptake in cortical brain regions, AD subjects compared with healthy controls (tau protein)",peak brain uptake [4] [SUV]
"COc1ccc2nc3cc(N4CCC([18F])CC4)ccn3c2c1 [Compound T798, 3-(4-[18F]-fluoropiperidin-1-yl)-8-methoxybenzo[4,5]imidazol[1,2-a]pyridine, reference compound]",approximately 8.4±1.7,approximately 18.0±3.2,"binds to tau, amyloid, and unidentified binding sites in normal human brain",bone uptake of radioactivity increases with time,–,–,–,–
"Cc1ccc2nc3cc(N4CC(F)C4)ccn3c2c1 [Compound 4, 3-(3-fluoroazetidin-1-yl)-8-methylbenzo[4,5]imidazo[1,2-a]pyridine]",–,–,–,–,0.6,–,–,–
"COc1ccc2nc3cc(N4CCC(CC[18F])CC4)ccn3c2c1 [Compound T821, 3-(4-(2-[18F]-fluoroethyl)piperidin-1-yl)-8-methoxybenzo[4,5]imidazo[1,2-a]pyridine, reference compound]",approximately 2.22±0.45,approximately 11.7±1.2,"binds to tau, amyloid, and unidentified binding sites in normal human brain",bone uptake of radioactivity increases with time,–,–,–,–
"[18F]c1ccc(-c2ccc3c(c2)[nH]c2ccncc23)cn1 [[18F]AV-1451, reference compound]",–,–,–,–,–,0.57,Higher uptake,~6
